Assay results from patent publication US12441691B2 (Cytokinetics, Inc., priority 2020, dated 2025).

tested on: rabbit skeletal myofibrils (fast skeletal myofibrils); assay: Activation of fast skeletal myofibrils (PUMA assay, AC1.4); type: biochemical; settings: calcium at pCa25, AC1.4 = concentration at which the compound increased the enzymatic activity
In short: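 Detergent-washed rabbit psoas myofibrils (~90% fast fibers), calcium set to give 25% of maximal rate (pCa25). ATPase followed by pyruvate kinase/lactate dehydrogenase-coupled NADH oxidation, absorbance at 340 nm. PM12 buffer: 12 mM PIPES, 2 mM MgCl2, 1 mM DTT, pH 6.8.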

Compound | AC1.4
CC[C@H](C)[C@H]1C(=O)Nc2ccccc2CN1C(=O)N[C@H]1CCN(CCO)C1 [Compound 141, (S)-3-((S)-sec-butyl)-N-((S)-1-(2-hydroxyethyl)pyrrolidin-3-yl)-2-oxo-1,2,3,5-tetrahydro-4H-benzo[e][1,4]diazepine-4-carboxamide] | 0.54 µM
CC[C@H](C)[C@H]1C(=O)Nc2ccccc2CN1C(=O)NC1CCNCC1 [Compound 142, (S)-3-((S)-sec-butyl)-2-oxo-N-(piperidin-4-yl)-1,2,3,5-tetrahydro-4H-benzo[e][1,4]diazepine-4-carboxamide] | 0.36 µM
CC[C@H](C)[C@H]1C(=O)Nc2ccccc2CN1C(=O)N[C@@H]1CCN(C)C1 [Compound 143, (S)-3-((S)-sec-butyl)-N-((R)-1-methylpyrrolidin-3-yl)-2-oxo-1,2,3,5-tetrahydro-4H-benzo[e][1,4]diazepine-4-carboxamide] | 0.35 µM
CC[C@H](C)[C@H]1C(=O)Nc2ccccc2CN1C#N [Compound 145, (S)-3-((S)-sec-butyl)-2-oxo-1,2,3,5-tetrahydro-4H-benzo[e][1,4]diazepine-4-carbonitrile] | 0.50 µM
CC[C@H](C)[C@H]1C(=O)Nc2ccccc2CN1C(=N)NO [Compound 146, (S)-3-((S)-sec-butyl)-N-hydroxy-2-oxo-1,2,3,5-tetrahydro-4H-benzo[e][1,4]diazepine-4-carboximidamide] | 0.30 µM
CC[C@H](C)[C@H]1C(=O)Nc2ccccc2CN1C(=O)C(C)(C)C(N)=O [Compound 147, 3-((S)-3-((S)-sec-butyl)-2-oxo-1,2,3,5-tetrahydro-4H-benzo[e][1,4]diazepin-4-yl)-2,2-dimethyl-3-oxopropanamide] | 2.57 µM
CC[C@H](C)[C@H]1C(=O)Nc2ccccc2CN1C(=O)C1CC(=O)N(C)C1 (stereo partly shown) [Compound 148] | 0.98 µM
CC[C@H](C)[C@H]1C(=O)Nc2ccccc2CN1C(=O)CC(C)(C)O [Compound 149] | 2.08 µM
CC[C@H](C)[C@H]1C(=O)Nc2ccccc2CN1C(=O)c1cc2ncccc2[nH]1 [Compound 150, (S)-3-((S)-sec-butyl)-4-(1H-pyrrolo[3,2-b]pyridine-2-carbonyl)-1,3,4,5-tetrahydro-2H-benzo[e][1,4]diazepin-2-one] | 0.03 µM
CC[C@H](C)[C@H]1C(=O)Nc2ccccc2CN1C(=O)c1cc2ccncc2[nH]1 [Compound 151, (S)-3-((S)-sec-butyl)-4-(1H-pyrrolo[2,3-c]pyridine-2-carbonyl)-1,3,4,5-tetrahydro-2H-benzo[e][1,4]diazepin-2-one] | 0.06 µM
CC[C@H](C)[C@H]1C(=O)Nc2ccccc2CN1C(=O)c1ncn[nH]1 [Compound 152, (S)-3-((S)-sec-butyl)-4-(1H-1,2,4-triazole-5-carbonyl)-1,3,4,5-tetrahydro-2H-benzo[e][1,4]diazepin-2-one] | 0.07 µM
CC[C@H](C)[C@H]1C(=O)Nc2ccccc2CN1C(=O)c1c[nH]nn1 [Compound 153, (S)-3-((S)-sec-butyl)-4-(1H-1,2,3-triazole-4-carbonyl)-1,3,4,5-tetrahydro-2H-benzo[e][1,4]diazepin-2-one] | 0.09 µM
CC[C@H](C)[C@H]1C(=O)Nc2ccccc2CN1C(=O)c1cccc(=O)n1C [Compound 154, (S)-3-((S)-sec-butyl)-4-(1-methyl-6-oxo-1,6-dihydropyridine-2-carbonyl)-1,3,4,5-tetrahydro-2H-benzo[e][1,4]diazepin-2-one] | 0.65 µM
CC[C@H](C)[C@H]1C(=O)Nc2ccccc2CN1C(=O)c1ccc(=O)[nH]c1 [Compound 155, (S)-3-((S)-sec-butyl)-4-(6-oxo-1,6-dihydropyridine-3-carbonyl)-1,3,4,5-tetrahydro-2H-benzo[e][1,4]diazepin-2-one] | 0.54 µM
CC[C@H](C)[C@H]1C(=O)Nc2ccccc2CN1C(=O)c1ccc(=O)n(C)c1 [Compound 156, (S)-3-((S)-sec-butyl)-4-(1-methyl-6-oxo-1,6-dihydropyridine-3-carbonyl)-1,3,4,5-tetrahydro-2H-benzo[e][1,4]diazepin-2-one] | 0.90 µM
CC[C@H](C)[C@H]1C(=O)Nc2ccccc2CN1C(=O)c1cnn(C)n1 [Compound 157, (S)-3-((S)-sec-butyl)-4-(2-methyl-2H-1,2,3-triazole-4-carbonyl)-1,3,4,5-tetrahydro-2H-benzo[e][1,4]diazepin-2-one] | 0.11 µM
CC[C@H](C)[C@H]1C(=O)Nc2ccccc2CN1C(=O)c1ccc(C(N)=O)nc1 [Compound 158, 5-((S)-3-((S)-sec-butyl)-2-oxo-2,3,4,5-tetrahydro-1H-benzo[e][1,4]diazepine-4-carbonyl)picolinamide] | 0.44 µM

Compound | AC1.4
CC[C@H](C)[C@H]1C(=O)Nc2ccccc2CN1C(=O)c1cnnn1C [Compound 159, (S)-3-((S)-sec-butyl)-4-(1-methyl-1H-1,2,3-triazole-5-carbonyl)-1,3,4,5-tetrahydro-2H-benzo[e][1,4]diazepin-2-one] | 0.59 µM
CC[C@H](C)[C@H]1C(=O)Nc2ccccc2CN1C(=O)c1ncc[nH]1 [Compound 160, (S)-3-((S)-sec-butyl)-4-(1H-imidazole-2-carbonyl)-1,3,4,5-tetrahydro-2H-benzo[e][1,4]diazepin-2-one] | 0.16 µM
CC[C@H](C)[C@H]1C(=O)Nc2ccccc2CN1C(=O)C1CCC(=O)N1 (stereo partly drawn) [Compound 161, (3S)-3-((S)-sec-butyl)-4-(5-oxopyrrolidine-2-carbonyl)-1,3,4,5-tetrahydro-2H-benzo[e][1,4]diazepin-2-one] | 2.25 µM
CC[C@H](C)[C@H]1C(=O)Nc2ccccc2CN1C(=O)c1cncc(C(N)=O)c1 [Compound 162, 5-((S)-3-((S)-sec-butyl)-2-oxo-2,3,4,5-tetrahydro-1H-benzo[e][1,4]diazepine-4-carbonyl)nicotinamide] | 0.11 µM
CCOC(=O)c1ccc(C(=O)N2Cc3ccccc3NC(=O)[C@@H]2[C@@H](C)CC)[nH]1 [Compound 163, ethyl 5-((S)-3-((S)-sec-butyl)-2-oxo-2,3,4,5-tetrahydro-1H-benzo[e][1,4]diazepine-4-carbonyl)-1H-pyrrole-2-carboxylate] | 0.05 µM
CC[C@H](C)[C@H]1C(=O)Nc2ccccc2CN1C(=O)c1cnn(C[C@@H](C)O)c1 [Compound 164, (S)-3-((S)-sec-butyl)-4-(1-((R)-2-hydroxypropyl)-1H-pyrazole-4-carbonyl)-1,3,4,5-tetrahydro-2H-benzo[e][1,4]diazepin-2-one] | 0.10 µM
CC[C@H](C)[C@H]1C(=O)Nc2ccccc2CN1C(=O)c1ccc2c(c1)NC(=O)C2 [Compound 165, (S)-3-((S)-sec-butyl)-4-(2-oxoindoline-6-carbonyl)-1,3,4,5-tetrahydro-2H-benzo[e][1,4]diazepin-2-one] | 0.14 µM
CC[C@H](C)[C@H]1C(=O)Nc2ccccc2CN1C(=O)c1ccc(C(=O)O)[nH]1 [Compound 166, 5-((S)-3-((S)-sec-butyl)-2-oxo-2,3,4,5-tetrahydro-1H-benzo[e][1,4]diazepine-4-carbonyl)-1H-pyrrole-2-carboxylic acid] | 0.45 µM
CC[C@H](C)[C@H]1C(=O)Nc2ccccc2CN1C(=O)c1ccc2c(c1)CC(=O)N2 [Compound 167, (S)-3-((S)-sec-butyl)-4-(2-oxoindoline-5-carbonyl)-1,3,4,5-tetrahydro-2H-benzo[e][1,4]diazepin-2-one] | 0.05 µM
CC[C@H](C)[C@H]1C(=O)Nc2ccccc2CN1C(=O)c1cc2nc(C(N)=O)ccc2[nH]1 [Compound 168, 2-((S)-3-((S)-sec-butyl)-2-oxo-2,3,4,5-tetrahydro-1H-benzo[e][1,4]diazepine-4-carbonyl)-1H-pyrrolo[3,2-b]pyridine-5-carboxamide] | 0.04 µM
CC[C@H](C)[C@H]1C(=O)Nc2ccccc2CN1C(=O)c1ccc2[nH]c(C(N)=O)cc2n1 [Compound 169, 5-((S)-3-((S)-sec-butyl)-2-oxo-2,3,4,5-tetrahydro-1H-benzo[e][1,4]diazepine-4-carbonyl)-1H-pyrrolo[3,2-b]pyridine-2-carboxamide] | 0.06 µM
CC[C@H](C)[C@H]1C(=O)Nc2ccccc2CN1C(=O)c1ccc(=O)n(CCO)c1 [Compound 170, (S)-3-((S)-sec-butyl)-4-(1-(2-hydroxyethyl)-6-oxo-1,6-dihydropyridine-3-carbonyl)-1,3,4,5-tetrahydro-2H-benzo[e][1,4]diazepin-2-one] | 0.79 µM
CC[C@H](C)[C@H]1C(=O)Nc2ccccc2CN1C(=O)c1nc2cccnc2[nH]1 [Compound 171, (S)-3-((S)-sec-butyl)-4-(3H-imidazo[4,5-b]pyridine-2-carbonyl)-1,3,4,5-tetrahydro-2H-benzo[e][1,4]diazepin-2-one] | 0.03 µM
CC[C@H](C)[C@H]1C(=O)Nc2ccccc2CN1C(=O)c1ccn(C)c(=O)c1 [Compound 172, (S)-3-((S)-sec-butyl)-4-(1-methyl-2-oxo-1,2-dihydropyridine-4-carbonyl)-1,3,4,5-tetrahydro-2H-benzo[e][1,4]diazepin-2-one] | 0.63 µM
CC[C@H](C)[C@H]1C(=O)Nc2ccccc2CN1C(=O)c1cnn(CC(N)=O)c1 [Compound 173, 2-(4-((S)-3-((S)-sec-butyl)-2-oxo-2,3,4,5-tetrahydro-1H-benzo[e][1,4]diazepine-4-carbonyl)-1H-pyrazol-1-yl)acetamide] | 0.22 µM
CC[C@H](C)[C@H]1C(=O)Nc2ccccc2CN1C(=O)c1ccc(C(=O)NCCO)[nH]1 [Compound 174, 5-((S)-3-((S)-sec-butyl)-2-oxo-2,3,4,5-tetrahydro-1H-benzo[e][1,4]diazepine-4-carbonyl)-N-(2-hydroxyethyl)-1H-pyrrole-2-carboxamide] | 0.03 µM
CC[C@H](C)[C@H]1C(=O)Nc2ccccc2CN1C(=O)c1ccc(C(=O)NCC(O)CO)[nH]1 (stereo partly drawn) [Compound 175, 5-((S)-3-((S)-sec-butyl)-2-oxo-2,3,4,5-tetrahydro-1H-benzo[e][1,4]diazepine-4-carbonyl)-N-(2,3-dihydroxypropyl)-1H-pyrrole-2-carboxamide] | 0.04 µM
